Converted amounts (≈) assume the structure as drawn. Counter-ions that a name gives are not always drawn. Like-named read-outs stand apart in the source and are kept apart here.
Columns and labels:
ESCHERICHIA COLI SS = assay: In vitro antibacterial activity, agar dilution MIC (BHIA); format: cell-based; conditions: Brain Heart Infusion Agar (BHIA), 36° C, 18 h, strain SS
ESCHERICHIA COLI H560 = assay: as above; format: cell-based; conditions: 18 h
[1] = system: KLEBSIELLA PNEUMONIAE ATCC 8045; assay: In vitro antibacterial activity, agar dilution MIC (BHIA); format: cell-based
[2] = system: PROVIDENCIA STUARTII CMX 640; assay: as above; format: cell-based; conditions: 18 h
[3] = system: STREPTOCOCCUS PYOGENES 930 CONST; assay: as above; format: cell-based; conditions: 18 h
[4] = system: PSEUDOMONAS AERUGINOSA K799/61; assay: as above; format: cell-based; conditions: Brain Heart Infusion Agar (BHIA), 36° C, 18 h, strain K799/61
[5] = system: STREPTOCOCCUS BOVIS A5169; assay: as above; format: cell-based; conditions: Streptococcus equinus, 18 h
ESCHERICHIA COLI DC-2 = assay: as above; format: cell-based; conditions: 18 h
[6] = system: PSEUDOMONAS AERUGINOSA BMH10; assay: as above; format: cell-based; conditions: 18 h
ACINETOBACTER SP CMX 669 = assay: as above; format: cell-based; conditions: 18 h
ESCHERICHIA COLI KNK 437 = assay: as above; format: cell-based; conditions: Brain Heart Infusion Agar (BHIA), 36° C, 18 h, strain KNK 437
STR[…] 2548 INDUC = assay: as above; format: cell-based; conditions: Streptococcus pyogenes, 18 h
M[…] ATCC 4698 = assay: as above; format: cell-based; conditions: Micrococcus luteus, ATCC4698, 18 h
Excerpt: (§1) The MIC results are in ug/ml. TABLE VII

STR[…] EES61 = assay: as above; format: cell-based; conditions: Streptococcus pyogenes, 18 h
Excerpt: as §1

EN[…] ATCC 8043 = assay: as above; format: cell-based; conditions: Enterococcus faecium, ATCC8043, 18 h
Excerpt: as §1

M[…] ATCC 9341 = assay: as above; format: cell-based; conditions: Micrococcus luteus, ATCC9341, 18 h
Excerpt: as §1

P[…] 296I = assay: as above; format: cell-based; conditions: Burkholderia cepacia, 18 h
Excerpt: as §1

STR[…] 508 = assay: as above; format: cell-based; conditions: Streptococcus agalactiae, 18 h
Excerpt: as §1

[7] = system: ENTEROBACTER AEROGENES ATCC 13048; assay: as above; format: cell-based; conditions: Klebsiella aerogenes
ESCHERICHIA COLI JUHL = assay: as above; format: cell-based; conditions: 18 h
[8] = system: PSEUDOMONAS AERUGINOSA A5007; assay: as above; format: cell-based; conditions: Brain Heart Infusion Agar (BHIA), 36° C, 18 h, strain A5007
Excerpt: as §1

[9] = system: PSEUDOMONAS AERUGINOSA K799/WT; assay: as above; format: cell-based; conditions: Brain Heart Infusion Agar (BHIA), 36° C, 18 h, strain K799/WT
Excerpt: as §1

Stap. Aureus CMX 553 = assay: Second in vitro antibacterial test, MIC (BHIB); format: cell-based; conditions: Staphylococcus aureus, Brain Heart Infusion Broth (BHIB), read-out: MIC
Ps.Aeruginosa A5007 = assay: Second in vitro antibacterial test, MIC (BHIB); format: cell-based; conditions: Pseudomonas aeruginosa, Brain Heart Infusion Broth (BHIB), read-out: MIC
Strep. pyogenes EES 61 = assay: Second in vitro antibacterial test, MIC (BHIB); format: cell-based; conditions: Streptococcus pyogenes, EES61, Brain Heart Infusion Broth (BHIB), read-out: MIC
E.Coli Juhl = assay: Second in vitro antibacterial test, MIC (BHIB); format: cell-based; conditions: Escherichia coli, Brain Heart Infusion Broth (BHIB), read-out: MIC
[10] = Plasma level in dog after oral dose; format: in vivo; conditions: 10 mg/kg, 10 mg equivalent/kg oral dose, HPLC
Excerpt: The plasma samples were collected and determined by the HPLC analysis.

[11] = ATCC8045, Brain Heart Infusion Agar (BHIA), 36° C, 18 h, strain ATCC 8045, read-out: MIC
[12] = Brain Heart Infusion Agar (BHIA), 36° C, strain BMH10, read-out: MIC
[13] = Brain Heart Infusion Agar (BHIA), 36° C, strain CMX 669, read-out: MIC
[14] = ATCC13048, Brain Heart Infusion Agar (BHIA), 36° C, 18 h, strain ATCC 13048, read-out: MIC
[15] = Brain Heart Infusion Agar (BHIA), 36° C, strain JUHL, read-out: MIC
[16] = Brain Heart Infusion Agar (BHIA), 36° C, strain CMX 640, read-out: MIC
[17] = Brain Heart Infusion Agar (BHIA), 36° C, strain A5169, read-out: MIC

| Compound | MIC (ESCHERICHIA COLI SS) [µg/mL] | solubility (physchem; pH 7.4) [µg/mL] | solubility (physchem; water) [µg/mL] | MIC [1, 11] [µg/mL] | MIC [4] [µg/mL] | MIC (ESCHERICHIA COLI DC-2) [µg/mL] | MIC [6, 12] [µg/mL] | MIC (ESCHERICHIA COLI KNK 437) [µg/mL] | MIC (STR[…] 2548 INDUC) [µg/mL] | MIC (M[…] ATCC 4698) [µg/mL] | MIC (STR[…] EES61) [µg/mL] | MIC (EN[…] ATCC 8043) [µg/mL] | MIC (M[…] ATCC 9341) [µg/mL] | MIC (P[…] 296I) [µg/mL] | MIC (STR[…] 508) [µg/mL] | MIC [7, 14] [µg/mL] | MIC (Stap. Aureus CMX 553) [µg/mL] | MIC (Ps.Aeruginosa A5007) [µg/mL] | MIC (Strep. pyogenes EES 61) [µg/mL] | MIC (E.Coli Juhl) [µg/mL] | further results |
| --- | --- | --- | --- | --- | --- | --- | --- | --- | --- | --- | --- | --- | --- | --- | --- | --- | --- | --- | --- | --- | --- |
| NCC(=O)N[C@@H](Cc1ccccc1)C(=O)NC1CCN(c2nc3c(cc2F)c(=O)c(C(=O)O)cn3-c2ccc(F)cc2F)C1 (stereo partly drawn) [Example 1b, 7-[(3-Gly-L-Phe-amino)-1-pyrrolidinyl]-1-(2,4-difluorophenyl)-6-fluoro-1,4-dihydro-4-oxo-1,8-naphthyridine-3-carboxylic acid hydrochloride] | 0.2 | 1040 | > 98000 | 12.5 | 12.5 | 100 | 25 | 25 | 0.78 | 0.78 | 1.56 | 1.56 | 6.25 | 50 | 1.56 | 12.5 |  |  |  |  | MIC (ESCHERICHIA COLI H560): 1.56 µg/mL; MIC [2]: 100 µg/mL; MIC [3]: 0.78 µg/mL; MIC [5]: 1.56 µg/mL; MIC (ACINETOBACTER SP CMX 669; [13]): 12.5 µg/mL; MIC (ESCHERICHIA COLI JUHL; [15]): 3.12 µg/mL |
| NC(Cc1ccccc1)C(=O)NC1CCN(c2nc3c(cc2F)c(=O)c(C(=O)O)cn3-c2ccc(F)cc2F)C1 (centres unmarked) [Example 5] | 0.1 (≈ 0.181 µM) | 340 (≈ 616 µM) | > 101000 | 1.56 (≈ 2.83 µM) | 1.56 (≈ 2.83 µM) | 50 (≈ 90.7 µM) |  | 100 (≈ 181 µM) | 0.78 (≈ 1.41 µM) | 12.5 (≈ 22.7 µM) | 3.1 (≈ 5.62 µM) | 3.1 (≈ 5.62 µM) | 25 (≈ 45.3 µM) | > 100 | 3.1 (≈ 5.62 µM) |  |  |  |  |  | MIC (ESCHERICHIA COLI H560): 3.1 µg/mL (≈ 5.62 µM); MIC [2, 16]: > 100 µg/mL; MIC ([3]; Brain Heart Infusion Agar (BHIA), 36° C, strain 930 CONST, read-out: MIC): 1.56 µg/mL (≈ 2.83 µM); MIC [5, 17]: 6.2 µg/mL (≈ 11.2 µM); MIC [6]: 25 µg/mL (≈ 45.3 µM); MIC (ACINETOBACTER SP CMX 669): 12.5 µg/mL (≈ 22.7 µM); MIC [8]: 50 µg/mL (≈ 90.7 µM); MIC [9]: 25 µg/mL (≈ 45.3 µM); MIC ([7]; ATCC13048, 18 h): 12.5 µg/mL (≈ 22.7 µM); MIC (ESCHERICHIA COLI JUHL): 3.1 µg/mL (≈ 5.62 µM) |
| CC(N)C(=O)NC(C)C(=O)NC1CCN(c2nc3c(cc2F)c(=O)c(C(=O)O)cn3-c2ccc(F)cc2F)C1 (centres unmarked) [Example 15] | 0.39 (≈ 0.714 µM) | 1070 (≈ 1960 µM) | > 70000 |  | 3.1 (≈ 5.67 µM) |  | 100 (≈ 183 µM) | 50 (≈ 91.5 µM) | 12.5 (≈ 22.9 µM) | 100 (≈ 183 µM) | 12.5 (≈ 22.9 µM) | 50 (≈ 91.5 µM) | > 100 | 50 (≈ 91.5 µM) | 12.5 (≈ 22.9 µM) | 25 (≈ 45.7 µM) |  |  |  |  | MIC (ESCHERICHIA COLI H560; Brain Heart Infusion Agar (BHIA), 36° C, strain H560, read-out: MIC): 6.2 µg/mL (≈ 11.3 µM); MIC ([1]; ATCC8045, 18 h): 12.5 µg/mL (≈ 22.9 µM); MIC [2, 16]: 100 µg/mL (≈ 183 µM); MIC [3]: 12.5 µg/mL (≈ 22.9 µM); MIC [5, 17]: 50 µg/mL (≈ 91.5 µM); MIC (ESCHERICHIA COLI DC-2; Brain Heart Infusion Agar (BHIA), 36° C, strain DC-2, read-out: MIC): 100 µg/mL (≈ 183 µM); MIC (ACINETOBACTER SP CMX 669): 12.5 µg/mL (≈ 22.9 µM); MIC [9]: 50 µg/mL (≈ 91.5 µM); MIC (ESCHERICHIA COLI JUHL): 12.5 µg/mL (≈ 22.9 µM) |
| CCCC(N)C(=O)NC1CCN(c2nc3c(cc2F)c(=O)c(C(=O)O)cn3-c2ccc(F)cc2)C1 (centres unmarked) [Example 26i] |  | 240 (≈ 494 µM) | > 9000 |  |  |  |  |  |  |  |  |  |  |  |  |  | 1.56 (≈ 3.21 µM) | 6.2 (≈ 12.8 µM) | 1.56 (≈ 3.21 µM) | 0.39 (≈ 0.803 µM) |  |
| CS(=O)(=O)CC[C@H](N)C(=O)NC1CCN(c2nc3c(cc2F)c(=O)c(C(=O)O)cn3-c2ccc(F)cc2F)C1 (stereo partly drawn) [Example 31c, 7-[3-L-Methioninesulfone-Amino-1-Pyrrolidinyl]-1-(2,4-Difluorophenyl)-6-Fluoro-1,4-Dihydro-4-Oxo 1,8-Naphthyridine-3-Carboxylic Acid Hydrochloride] |  | 30 | > 35000 |  |  |  |  |  |  |  |  |  |  |  |  |  | 25 | > 100 | 25 | 12.5 |  |
| N[C@@H](Cc1cnc[nH]1)C(=O)NC1CCN(c2nc3c(cc2F)c(=O)c(C(=O)O)cn3-c2ccc(F)cc2F)C1 (stereo partly drawn) [Example 44c, 7-[3-L-Histidine-Amino-1-Pyrrolidinyl)-1-(2,4-Difluorophenyl)-6-Fluoro-1,4-Dihydro-4-oxo-1,8-Naphthyridine-3-Carboxylic Acid Dihydrochloride] |  | 300 | > 100000 |  |  |  |  |  |  |  |  |  |  |  |  |  | 16 | > 64 | 32 | 64 |  |
| NC1CCN(c2nc3c(cc2F)c(=O)c(C(=O)O)cn3-c2ccc(F)cc2F)C1 (centres unmarked) [tosufloxacin, 7-(3-amino-1-pyrrolidinyl)-6-fluoro,1-(2,4-difluorophenyl)-1,4-dihydro-4-oxo-1,8-naphthyridine-3-carboxylic acid, reference compound] | 0.005 (≈ 0.0124 µM) | 10 (≈ 24.7 µM) | 650 (≈ 1610 µM) | 0.02 (≈ 0.0495 µM) |  | 0.39 (≈ 0.965 µM) | 0.1 (≈ 0.247 µM) |  | 0.1 (≈ 0.247 µM) |  |  |  |  |  | 0.39 (≈ 0.965 µM) | 0.05 (≈ 0.124 µM) |  |  |  |  | AUC(0-t) at 32 h [10]: 5300 ng·h/mL; Cmax ([10]; read-out: C max (range)): 670 ng/mL; MIC [5]: 0.39 µg/mL (≈ 0.965 µM); MIC (ACINETOBACTER SP CMX 669; [13]): 0.1 µg/mL (≈ 0.247 µM); MIC (ESCHERICHIA COLI JUHL; [15]): 0.02 µg/mL (≈ 0.0495 µM) |

Reference: patent EP0360258B1, “Amino acid quinoline and naphthyridine derivatives” (ABBOTT LABORATORIES, priority 1988, dated 1990)
